Here are results for six compounds from US4404206A, “Substituted iminoacid derivatives, process for preparing them and their use as enzyme inhibitors” (Science Union et Cie, priority 1979, dated 1983).

This assay has as its system enzyme responsible for the conversion of angiotension I into angiotension II. The assay is described as follows: Inhibition of the angiotensin I pressor response in dogs after intravenous administration (arterial pressure recorded). Particulars: dog. Format: in vivo. As to the method: The compounds of the invention are tested in […] dogs, maintained in forced respiration by an apparatus.
The aorta is catheterized by way of the femoral arteria, and the arterial pressure is registered by an appropriate instrument.
Angiotension I and II are administered to the animals intravenously at the dose of 0.3 γ/Kg. After registering of the dose/activity relation curve, the compounds of the invention are administered also by the intravenous route and modification of the blood pressure is also registered.
The results obtained by the new compounds are summarized in the table hereinafter and are expressed in percentage of inhibition of the enzyme activity. The numbers in the brackets indicate the dose of the active enantiomer contained in the administered doses.

Where [1] appears, read: dose 10 (2,5) mg/Kg IV, time 15 minutes.
Setting [2] is: dose 10 (2,5) mg/Kg IV, time 30 minutes.
Setting [3] is: dose 10 (2,5) mg/Kg IV, time 1 h 30 min.
Where [4] appears, read: dose 10 (2,5) mg/Kg IV, time 1 hour.
[5] abbreviates: dose 10 (2,5) mg/Kg IV, time 2 hours.
Where [6] appears, read: dose 10 (2,5) mg/Kg IV, time 3 hours.
Setting [7] is: dose 20 mg/Kg IV, time 15 minutes.
Where [8] appears, read: dose 20 mg/Kg IV, time 30 minutes.
Where [9] appears, read: dose 20 mg/Kg IV, time 1 h 30 min.

Structures are written as SMILES.

Take `C[C@@H](CS)C(=O)N1C2CCCCC2C[C@@H]1C(=O)O` (mixture of isomers) [Example 5, N-[3-mercapto 2-(RS)methylpropionyl] 2-(RS) carboxy perhydroindole]: the “Percentage of inhibition (of the enzyme activity)” value (“Percentage of inhibition” for short) runs as follows: (dose 5 (1,25) mg/Kg IV, time 15 minutes) 100%; (dose 5 (1,25) mg/Kg IV, time 30 minutes) 100%; (dose 5 (1,25) mg/Kg IV, time 1 h 30 min.) 90%; (dose 5 (1,25) mg/Kg IV, time 1 hour) 100%; (dose 5 (1,25) mg/Kg IV, time 2 hours) 71%; (dose 5 (1,25) mg/Kg IV, time 3 hours) 54%. Besides, the “Percentage of inhibition” value under setting [1] was 100%; the “Percentage of inhibition” value under setting [2] amounted to 92%; the “Percentage of inhibition” value under setting [3] was 92%; the “Percentage of inhibition” value under setting [4] is recorded as 92%; the “Percentage of inhibition” value under setting [5] was determined as 92%; the “Percentage of inhibition” value under setting [6] amounted to 86%.
In the case of `CC(CS)C(=O)N1C(C(=O)O)CCC2CCCCC21` (racemic) [Example 8, 1-[3 mercapto 2-(RS)methylpropionyl] 2-(RS) carboxy perhydroquinoline.], the “Percentage of inhibition” value reads like this: under setting [1], 72%; under setting [2], 69%; under setting [3], 50%; under setting [4], 64%; under setting [5], 36%; under setting [6], 31%.
Regarding `CC(CS)C(=O)N1CC2CCCCC2CC1C(=O)O` (stereo not drawn) [Example 1, 2-(3-mercapto-2-(RS)-methylpropionyl)-cis-perhydroisoquinoline-3-carboxylicacid], the “Percentage of inhibition” value under setting [7] stood at 100%; the “Percentage of inhibition” value under setting [8] turned out to be 100%; the “Percentage of inhibition” value under setting [9] is on record as 76%; the “Percentage of inhibition” value (dose 20 mg/Kg IV, time 1 hour) is reported as 90%; the “Percentage of inhibition” value (dose 20 mg/Kg IV, time 2 hours) stood at 70%; the “Percentage of inhibition” value (dose 20 mg/Kg IV, time 3 hours) came out at 42%.
Consider `CC(CS)C(=O)N1Cc2ccsc2CC1C(=O)O` (racemic) [Example 6], for which the “Percentage of inhibition” value amounted to 47% under setting [7]; 51% under setting [8]; 30% under setting [9]; 37% (dose 20 mg/Kg IV, time 1 hour); 26% (dose 20 mg/Kg IV, time 2 hours); 23% (dose 20 mg/Kg IV, time 3 hours).
With `C[C@@H](CS)C(=O)N1CC2CCCCC2[C@@H]1C(=O)O` (mixture of isomers) [Example 7, N-[3-mercapto 2-(RS)methylpropionyl] 1-(RS) carboxy perhydroisoindole], the “Percentage of inhibition” value under setting [1] is recorded as 83%; the “Percentage of inhibition” value under setting [2] stood at 64%; the “Percentage of inhibition” value under setting [3] was found to be 48%; the “Percentage of inhibition” value under setting [4] stood at 62%; the “Percentage of inhibition” value under setting [5] was determined as 40%; the “Percentage of inhibition” value under setting [6] was 26%.
With `CC(CC(=O)O)C(=O)N1Cc2ccccc2C[C@H]1C(=O)O` (mixture of isomers) [Example 9, 2-[3-carboxy 2-(RS)methylpropionyl] 3-(S) carboxy 1,2,3,4-tetrahydroisoquinoline], the “Percentage of inhibition” value came to 38% under setting [7]; 35% under setting [8]; 25% under setting [9]; 25% (dose 20 mg/Kg IV, time 1 hour); 48% (dose 20 mg/Kg IV, time 2 hours); 25% (dose 20 mg/Kg IV, time 3 hours).
